Here are results for one compound from patent publication US20070270403A1 (priority 2003, published 2007).

Experiment [1] has as its system Sprague-Dawley laboratory rats. The experiment in a line: Locomotion (ambulations) by infrared photobeams (risperidone studies). Format: in vivo, Sprague-Dawley Rattus Norvegicus. As to conditions: Subacute. The protocol:
Behaviors were monitored with infrared photobeams which surrounded the faradaic chamber. Open-field behaviors of locomotion (ambulations) and stereotypy (fine movements of sniffing and grooming) were recorded in sec and repeated every five min for a period of 2 hrs before each treatment and a period of 2 hrs after each treatment. Open-field behaviors were monitored simultaneously with in vivo microvoltammetric recordings of monoamines.
(§1) The first hr pre-drug, allowed exploratory behavior. Exploratory behavior is defined as open-field behavior of ambulations (forward locomotion) and stereotypy (fine movements of sniffing and grooming), wherein animals respond to the stimuli of a novel environment with a high frequency of behavioral counts. The second hr pre-drug allowed the animal to become habituated before treatment. […] In the acute studies, each drug was administered […]. For the subacute studies, twenty four hrs later, the animals were again placed in the faradaic behavioral chamber and no further drug was administered. Each animal was monitored for possible recovery, withdrawal or after-effects. of each treatment WHILE open-field behaviors of locomotions and stereotypy were monitored with computerized infrared photocell beams which surround the faradaic chamber.
The faradaic chamber was made of plexiglas and covered with copper wire to refract possible electrical artifacts (dimensions: 24 inch (width) by 18 inch (depth) by 23.5 inch (height)). A 16 by 16 array of infrared photobeams, held in place by an aluminum frame, was situated ¾ inch above the Plexiglas floor of the chamber to detect locomotor and stereotypic movements. Photobeams were sampled by a Pentium computer to define the x-y position of the animal within a 1.5 inch resolution every 100 msec. When an x-y position was calculated, it was used to define a particular behavioral parameter. This system is a modified version of an Activity Pattern Monitor (APM) (San Diego Instruments, San Diego, Calif.). Behavioral data is presented in terms of Frequency of Events.
(§2) Neurochemical and behavioral data, derived from the last thirty minutes of the habituation period, provided the baseline data. […] Where appropriate, data points in the time course were subjected to 95% Confidence Limits (C.L.).

Experiment [2] relates to Sprague-Dawley laboratory rats. Description: Locomotor activity (ambulations) by infrared photobeams (clozapine studies). Format: in vivo, Sprague-Dawley Rattus Norvegicus. As to conditions: Subacute, cocaine 10 mg/kg i.p. on Day 1.
Source text: Locomotor activity (ambulation) was monitored with infrared photobeams at the same time as DA and 5-HT release in NAcc was detected with BRODERICK PROBES® in conjunction with In Vivo Microvoltammetry. The chamber was faradaic, covered with copper to refract possible electrical artifacts (dimensions: 24 in (width) by 18 in (depth) by 23.5 in (height)). A 16 by 16 array of these infrared photobeams, were held in place by an aluminum frame which was situated ¾ in above the Plexiglas floor of the chamber to detect locomotor activity. Photobeams were sampled by a Pentium computer to define the x-y position of the animal within a 1.5 in resolution every 100 msec. When an x-y position was calculated, it was used to define the frequency of locomotor activity in counts. The locomotor activity system is a modified version of an Activity Pattern Monitor (APM) (San Diego Instruments, San Diego, Calif.). Behavioral data is presented in absolute frequency, i.e., number of counts recorded.
The first hr pre-drug allowed exploratory behavior. Exploratory behavior is defined as open-field behavior of ambulations (forward locomotion) wherein animals respond to the stimuli of a novel environment with high frequency of behavioral counts. The second hr pre-drug allowed the animal to become habituated before treatment.
In the Acute studies, each drug was administered at the end of the habituation period. Baseline (control) values were taken every five min for the last thirty min of the habituation period at which time drug injection(s) took place. Electrochemical recordings for DA and 5-HT release in NAcc, were continued for two hrs; at the same time, locomotor behavior continued to be monitored and recorded with infrared photobeams. At the end of the 2 hr drug(s) study, animals were then placed back in their home cages.
In the Subacute studies, which took place twenty-four hrs later, the animals were again placed in the faradaic behavioral chamber and no further drug was administered. Recordings of separate electrochemical signals for DA and 5-HT release in NAcc, were taken for one hr; at the same time, locomotor behavior was monitored and recorded with infrared photobeams.
as §2

The next experiment relates to 5-HT release in NAcc. The experiment in a line: In vivo microvoltammetry, 5-HT release in NAcc (risperidone studies). Also on record: species or system Sprague-Dawley Rattus Norvegicus. As to conditions: Subacute, cocaine 10 mg/kg i.p. on Day 1. The protocol:
In vivo microvoltammetry was used to detect dopamine (DA) and serotonin (5-HT) release from Nucleus Accumbens (NAcc) of freely moving, male, Sprague Dawley laboratory rats, while animals' locomotor (forward ambulations) and stereotypic behavior (fine movements of sniffing and grooming) were monitored at the same time with infrared photobeams. Monoamine release mechanisms were determined by using a depolarization blocker, gamma-butyrolactone (γBL). Miniature carbon sensors, BRODERICK PROBE® Lauric Acid Microelectrodes, smaller than a human hair, were used in conjunction with a semidifferential electrochemical circuit, to detect release of each monoamine in separate signals and within seconds. […] The hypothesis for the present studies is derived from a growing body of evidence that cocaine-induced psychosis and schizophrenic psychosis share similar neurochemical and behavioral manifestations.
Animals were purchased from Charles River Laboratories, Kingston, N.Y. and were housed in our animal care facilities for two weeks before surgery was performed. The Animal Care Facility operates under the auspices of the CUNY, City College Institutional Animal Care and Use Committee (IACUC) in compliance with National Institute of Health (NIH) guidelines. The weight range for the animals, at the time of the studies, was 350-475 g. Animals were group housed before surgery, individually housed after surgery and fed Purina Rat Chow and water ad libitum. A twelve hr dark-light cycle was maintained both in the housing of the animals and throughout the experimental studies. […] A Ag/AgCl reference electrode was placed in contact with dura, 7 mm anteriorally and contralaterally to the indicator microelectrode. A stainless steel auxiliary microelectrode, was placed in contact with dura.
In vivo microvoltammetric studies on conscious Sprague-Dawley laboratory rats were begun nine to fifteen days after the aseptic surgical operations were performed. On each experimental day, animals were placed in a Plexiglas-copper faradaic chamber. The three-microelectrode assembly, enclosed within the animal's prosthetic acrylic cap, was connected to a CV37 detector by means of a mercury commutator (Br. Res. Instr., Princeton, N.J.), a flexible cable, and a mating connector (BJM Electronics, Staten Island, N.Y.). The CV37 detector was electrically connected to a Minigard surge suppresser (Jefferson Electric, Magnetek, N.Y.) which was then connected to an electrical ground in isolation. […] Each animal was used as its own control. In vivo microvoltammetric scans were recorded in sec and repeated every five min for a period of 2 hrs before each treatment and a period of two hrs after each treatment.
as §1

Regarding `COC(=O)[C@H]1[C@@H](OC(=O)c2ccccc2)C[C@@H]2CC[C@H]1N2C` [Cocaine, cocaine], the “Decrease in locomotor activity frequency on Day 2 compared with drug treatment, Day1” value in experiment [1] is reported as “about 200 counts”. The “Decrease in locomotor activity on Day 2 compared with Day 1 effects of cocaine” value in experiment [2] worked out at 250 counts. Besides, the “Decrease in 5-HT release on Day 2 compared to drug effect on Day1” value with 5-HT release in NAcc is given as “about 75%”.
